# From patent US20210128609A1, “ONCOLOGY TREATMENTS USING ZINC AGENTS” (XYLONIX IP HOLDINGS PTE. LTD., priority 2018, published 2021)
# What was measured:
# Type in all cases: cell-based
# [1] = test system: SK-HEP-1; assay: CellTiter-Glo cell viability, SK-HEP-1
# Description: (§1) The 50% inhibitory concentration (IC50) was determined in the cancer cell lines using CellTiter-Glo luminescent cell viability assay after incubation with different concentrations of active agents. Each cell line was treated with active Zn(II) agent, a standard chemotherapy drug as reference control, and culture medium as vehicle control. Cell Lines. All cell lines were cultured in media supplemented with 10-15% FBS, at a temperature of 37° C., 5% CO2, and 95% humidity. The reference control drug for all cell lines was cisplatin, to be used for genomic analysis. The cell lines tested, the tissue of origin are shown below in Table 1: Procedure for Determining Half Maximal Inhibition Concentration IC50 • 1. Harvested cells during the logarithmic growth period and count cell number using Count-star. • 2. Adjusted cell concentrations to 4.44×10^4 cells/mL with respective culture medium. • 3. Added 90 μL cell suspensions to two 96-well plates (plates A and B) with the final cell density of 4×10^3 cells/well. (cell concentration was adjusted according to the data base or density optimization assay.) • 4a. Next day: For the plates of TO reading: • 1) Added 10 μL culture medium to each well of plate A for TO reading. • 2) Equilibrated the plate and its content at RT for approximately 30 min. • 3) Added 50 μL CellTiter-Glo reagent to each well. • 4) Mixed content for 5 min on an orbital shaker to induce cell lysis. • 5) Allowed the plate to incubate at RT for 20 min to stabilize luminescent signal. • 6) Recorded luminescence (TO) using EnVision Multi Label Reader. • 4b. For the plates of test reading: • 1) Prepared 10× solution of Zn(II) agent test article. […] The formula for calculating surviving rate is shown below and the absolute IC50 (EC50) was calculated according to the dose-response curve generated by GraphPad Prism 5.0. • 12) The surviving rate (%)=(LumTest article−LumMedium control)/(LumNon-treated−LumMedium control)×100%.
# [2] = test system: DU4475; assay: CellTiter-Glo cell viability, DU4475
# Description: as §1
# [3] = test system: HL-60; assay: CellTiter-Glo cell viability, HL-60
# Description: as §1
# [4] = test system: Hep3B; assay: CellTiter-Glo cell viability, Hep3B
# Description: as §1
# [5] = test system: SK-OV-3; assay: CellTiter-Glo cell viability, SK-OV-3
# Description: (§2) The 50% inhibitory concentration (IC50) was determined in the cancer cell lines using CellTiter-Glo luminescent cell viability assay after incubation with different concentrations of active agents. Each cell line was treated with active Zn(II) agent, a standard chemotherapy drug as reference control, and culture medium as vehicle control. Cell Lines. All cell lines were cultured in media supplemented with 10-15% FBS, at a temperature of 37° C., 5% CO2, and 95% humidity. The reference control drug for all cell lines was cisplatin, to be used for genomic analysis. The cell lines tested, the tissue of origin are shown below in Table 1: Procedure for Determining Half Maximal Inhibition Concentration IC50 • 1. Harvested cells during the logarithmic growth period and count cell number using Count-star. • 2. Adjusted cell concentrations to 4.44×10^4 cells/mL with respective culture medium. • 3. Added 90 μL cell suspensions to two 96-well plates (plates A and B) with the final cell density of 4×10^3 cells/well. (cell concentration was adjusted according to the data base or density optimization assay.) • 4a. […]
# [6] = test system: OCI-LY-19; assay: CellTiter-Glo cell viability, OCI-LY-19
# Description: as §1
# [7] = test system: 50 cancer cell lines; assay: 50 cell line screen, summary of eradication; conditions: out of 50 cell lines
# Description: as §1, with “control.” for “control. Cell Lines. All cell lines were cultured in media supplemented with 10-15% FBS, at a temperature of 37° C., 5% CO2, and 95% humidity. The reference control drug for all cell lines was cisplatin, to be used for genomic analysis. The cell lines tested, the tissue of origin are shown below in Table 1:”, “control)×100%. Stratifying the cell line panel makeup, the 50 cell lines included 30 blood cancers (17 leukemia and 13 lymphoma cell lines) and 20 solid tumor cancers, including breast (3), cervical (1), colorectum (1), liver (4), lung (4), ovarian (2), pancreas (2), prostate (2), and uterine (1) cancer cell lines.” for “control)×100%.”
# [8] = test system: MES-SA/DX5; assay: CellTiter-Glo cell viability, MES-SA/DX5
# Description: as §1
# [9] = test system: MOLM-16; assay: CellTiter-Glo cell viability, MOLM-16
# Description: as §1
# [10] = test system: EOL-1; assay: CellTiter-Glo cell viability, EOL-1
# Description: as §1
# [11] = test system: OCI-AML2; assay: CellTiter-Glo cell viability, OCI-AML2
# Description: as §1
# [12] = test system: Jurkat clone E6-1; assay: CellTiter-Glo cell viability, Jurkat clone E6-1
# Description: as §1
# [13] = test system: Ramos; assay: CellTiter-Glo cell viability, Ramos
# Description: as §1
# [14] = test system: MCF7; assay: CellTiter-Glo cell viability, MCF7
# Description: as §2
# [15] = test system: MV-4-11; assay: CellTiter-Glo cell viability, MV-4-11
# Description: as §1
# [16] = test system: HCC1954; assay: CellTiter-Glo cell viability, HCC1954
# Description: as §1
# [17] = test system: CA46; assay: CellTiter-Glo cell viability, CA46
# Description: as §1
# [18] = 96 h, top conc. 50 μg/mL Zn(II) agent, 100 μM cisplatin
structure (smiles),measurement,setting,value
N.N.[Cl][Pt][Cl] [Cisplatin],Absolute IC50,"[1]; 96 h, CellTiter-Glo",2.13 µg/mL
same,% inhibition at top conc.,[1]; [18],99.93%
same,HillSlope,[1]; 96 h dose-response fit,−1.28
same,Absolute IC50,"[2]; 96 h, CellTiter-Glo",0.31 µg/mL
same,% inhibition at top conc.,[2]; [18],99.94%
same,HillSlope,[2]; 96 h dose-response fit,−2.54
same,Absolute IC50,"[3]; 96 h, CellTiter-Glo",0.29 µg/mL
same,% inhibition at top conc.,[3]; [18],99.99%
same,HillSlope,[3]; 96 h dose-response fit,−2.08
same,Absolute IC50,"[4]; 96 h, CellTiter-Glo",0.78 µg/mL
same,% inhibition at top conc.,[4]; [18],99.58%
same,HillSlope,[4]; 96 h dose-response fit,−1.50
same,% inhibition at top conc.,[5]; [18],98.22%
same,HillSlope,[5]; 96 h dose-response fit,−1.68
same,Absolute IC50,"[6]; 96 h, CellTiter-Glo",0.04 µg/mL
same,% inhibition at top conc.,[6]; [18],99.99%
same,HillSlope,[6]; 96 h dose-response fit,−2.61
same,number of cell lines with more than 97% eradication,[7],45
same,number of cell lines with more than 99% eradication,[7],39
same,number of cell lines with poor response of less than 90% eradication,[7],2
same,Absolute IC50,"[8]; 96 h, CellTiter-Glo",0.56 µg/mL
same,% inhibition at top conc.,[8]; [18],99.97%
same,HillSlope,[8]; 96 h dose-response fit,−1.75
same,Absolute IC50,"[9]; 96 h, CellTiter-Glo",0.15 µg/mL
same,% inhibition at top conc.,[9]; [18],99.96%
same,HillSlope,[9]; 96 h dose-response fit,−1.65
same,Absolute IC50,"[10]; 96 h, CellTiter-Glo",0.16 µg/mL
same,% inhibition at top conc.,[10]; [18],99.99%
same,HillSlope,[10]; 96 h dose-response fit,−1.87
same,Absolute IC50,"[11]; 96 h, CellTiter-Glo",0.33 µg/mL
same,% inhibition at top conc.,[11]; [18],99.96%
same,HillSlope,[11]; 96 h dose-response fit,−2.66
same,Absolute IC50,"[12]; 96 h, CellTiter-Glo",0.17 µg/mL
same,% inhibition at top conc.,[12]; [18],99.99%
same,HillSlope,[12]; 96 h dose-response fit,−2.37
same,Absolute IC50,"[13]; 96 h, CellTiter-Glo",0.17 µg/mL
same,% inhibition at top conc.,[13]; [18],99.99%
same,HillSlope,[13]; 96 h dose-response fit,−2.13
same,% inhibition at top conc.,[14]; [18],96.37%
same,HillSlope,[14]; 96 h dose-response fit,−0.60
same,Absolute IC50,"[15]; 96 h, CellTiter-Glo",0.09 µg/mL
same,% inhibition at top conc.,[15]; [18],99.99%
same,HillSlope,[15]; 96 h dose-response fit,−2.06
same,Absolute IC50,"[16]; 96 h, CellTiter-Glo",1.59 µg/mL
same,% inhibition at top conc.,[16]; [18],99.87%
same,HillSlope,[16]; 96 h dose-response fit,−1.98
same,Absolute IC50,"[17]; 96 h, CellTiter-Glo",0.21 µg/mL
same,% inhibition at top conc.,[17]; [18],99.92%
same,HillSlope,[17]; 96 h dose-response fit,−1.96
